Measurements as given in US8633246B2, “Omega-3 fatty acids for osteoarthritis” (Hill's Pet Nutrition, Inc., priority 2003, dated 2014).

Tests used:
Format in all cases: cell-based, dog
[1] = tested on: canine cartilage; assay: Proteoglycan synthesis, 35SO4 incorporation into cartilage matrix; conditions: no catabolic stimuli
Method: (§1) To assess the potential effect of n-3 fatty acids on protein and proteoglycan metabolism in canine cartilage, cultures were set up as described in Example 1 except for the final 4 days of culture, no catabolic stimuli were added (i.e., all “control” cultures). During the final 24 hours of culture (1) ^35SO4, or (ii) ^35S-methionine and ^35S-cysteine, were added to the medium to radiolabel newly synthesized proteoglycans and proteins, respectively. The incorporation of radiolabel into the cartilage matrix was measured at the termination of culture. No attempt was made to quantitate loss of radiolabelled material from the cartilage over the 24-hour labeling period. The mean and standard deviation of the incorporation of ^35SO4 (“PG”) or ^35S-methionine and ^35S-cysteine (“PROT”) as DPM/mg wet weight are shown in Table 5 below, […]

[2] = tested on: canine articular cartilage explants; assay: Glycosaminoglycan (GAG) release from cultured canine cartilage explants
Method: This example illustrates the release of glycosaminoglycan elicited by omega-3 fatty acids in cultured canine cartilage tissue.
Articular cartilage was obtained from left and right stifles (both femoral condyles and tibial plateau) of dogs. Cartilage explants cultured for 3 days in medium with 10% fetal bovine serum, then washed 3 times in serum free medium. Explants then cultured for 6 days in serum free medium containing 0, 100 or 300 μg/ml n3 fatty acid (EPA, ALA or DHA). After this period in fatty acid medium, all explants were washed 3 times in fatty acid free/serum free medium. Explants were then cultured individually for 4 days in 1 ml of fatty acid and serum free medium containing no additives (C), 10^−6M retinoic acid (RA) or 50 ng/ml oncostatin M (OSM). Note that not all treatments were possible on all dogs because of cartilage availability. The release of proteoglycan into the medium (μg/mg wet weight) was measured at the termination of culture. In the tables below, the mean and standard deviation of glycosaminoglycan (GAG) release for the triplicate cultures for each of the 4 dogs are given. In addition, the media lactate (μg/mg wet weight) concentrations were given for each treatment.

[3] = tested on: canine cartilage; assay: Protein synthesis, 35S-methionine and 35S-cysteine incorporation into cartilage matrix; conditions: no catabolic stimuli
Method: as §1

| SMILES | PG Mean (incorporation of 35SO4) ([1]; 100 μg/ml) [DPM/mg wet weight] | PG Mean (incorporation of 35SO4) ([1]; 300 μg/ml) [DPM/mg wet weight] | GAG Mean ([2]; Dog 2, C, 100 μg/ml) | GAG Mean ([2]; Dog 2, C, 300 μg/ml) | GAG Mean ([2]; Dog 2, OSM, 100 μg/ml) [μg/mg wet weight] | GAG Mean ([2]; Dog 2, OSM, 300 μg/ml) [μg/mg wet weight] | GAG Mean ([2]; Dog 3, C, 100 μg/ml) [μg/mg wet weight] | GAG Mean ([2]; Dog 3, C, 300 μg/ml) [μg/mg wet weight] | GAG Mean ([2]; Dog 3, OSM, 100 μg/ml) [μg/mg wet weight] | GAG Mean ([2]; Dog 3, OSM, 300 μg/ml) [μg/mg wet weight] | GAG Mean ([2]; Dog 3, RA, 100 μg/ml) [μg/mg wet weight] | GAG Mean ([2]; Dog 3, RA, 300 μg/ml) [μg/mg wet weight] | GAG Mean ([2]; Dog 4, C, 100 μg/ml) [μg/mg wet weight] | GAG Mean ([2]; Dog 4, C, 300 μg/ml) [μg/mg wet weight] | GAG Mean ([2]; Dog 4, OSM, 100 μg/ml) [μg/mg wet weight] | GAG Mean ([2]; Dog 4, OSM, 300 μg/ml) [μg/mg wet weight] | GAG Mean ([2]; Dog 4, RA, 100 μg/ml) [μg/mg wet weight] | GAG Mean ([2]; Dog 4, RA, 300 μg/ml) [μg/mg wet weight] | PROT Mean (incorporation of 35S-methionine and 35S-cysteine) ([3]; 100 μg/ml) [DPM/mg wet weight] | PROT Mean (incorporation of 35S-methionine and 35S-cysteine) ([3]; 300 μg/ml) [DPM/mg wet weight] | further results |
| --- | --- | --- | --- | --- | --- | --- | --- | --- | --- | --- | --- | --- | --- | --- | --- | --- | --- | --- | --- | --- | --- |
| CC/C=C\C/C=C\C/C=C\CCCCCCCC(=O)O [ALA, alpha-linolenic acid] | 246.333 | 443.0 | 1.12 μg/mg wet weight | .993 μg/mg wet weight | 8.497 | 6.42 | 2.117 | 2.447 | 22.033 | 23.467 | 20.44 | 24.467 | 2.103 | 1.533 | 11.7 | 19.557 | 12.547 | 14.093 | 503.667 | 393.667 | change in GAG release ([2]; Dog 2, OSM treated cultures): not ALA or DHA significantly decreased |
| CC/C=C\C/C=C\C/C=C\C/C=C\C/C=C\C/C=C\CCC(=O)O [DHA, Docosahexaenoic acid] | 156.0 | 123.333 | .640 μg/mg wet weight | .843 μg/mg wet weight | 8.567 | 6.073 | 1.903 | 1.55 | 11.667 | 11.630 | 21.093 | 19.457 | 2.343 | 2.307 | 24.967 | 16.4 | 11.28 | 11.3 | 503.667 | 564.333 | – |
| CC/C=C\C/C=C\C/C=C\C/C=C\C/C=C\CCCC(=O)O [EPA, Eicosapentaenoic acid] | 537.333 | 275.667 | .340 μg/mg wet weight | .573 μg/mg wet weight | 5.25 | 2.83 | 1.673 | 1.567 | 17.85 | 8.1 | 16.223 | 1.537 | 2.687 | 2.1 | 15.883 | 13.493 | 14.393 | 9.093 | 442.0 | 504.0 | GAG Mean ([2]; Dog 1, C (no additives), 100 μg/ml): 1.590 μg/mg wet weight; GAG Mean ([2]; Dog 1, C (no additives), 300 μg/ml): 1.036 μg/mg wet weight; GAG Mean ([2]; Dog 1, OSM (50 ng/ml oncostatin M), 100 μg/ml): 6.293 μg/mg wet weight; GAG Mean ([2]; Dog 1, OSM, 300 μg/ml): 2.167 μg/mg wet weight; GAG Mean ([2]; Dog 1, RA (10^−6M retinoic acid), 100 μg/ml): 8.677 μg/mg wet weight; GAG Mean ([2]; Dog 1, RA, 300 μg/ml): 1.593 μg/mg wet weight |
